Results taken from patent US20030118514A1, “Compositions for inhalation” (Glaxo Wellcome Inc., priority 1998, published 2003).
Where two headings read alike, the source gives them in different places.

Columns and labels:
[1] = Fine particle fraction of salbutamol sulphate blended with Lactochem lactose (Example 7); type: physicochemical; conditions: after blending with Lactochem lactose
[2] = Mass median diameter of salbutamol sulphate particles; type: physicochemical

Substance | fine particle fraction (<6.4 μm) [1] [% recovered dose] | mass median diameter [2] [μm] | mass median diameter ([2]; listed as elongated crystals (needle shaped) of salbutamol sulphate) [μm]
salbutamol sulphate [micronised salbutamol sulphate] | 10.8 | 4.79 | –
salbutamol sulphate [recrystallised salbutamol sulphate] | 22.8 | – | 5.49
